Measurements published in patent US12077503B2, “Substituted cyclic amides and their use as herbicides” (FMC CORPORATION, priority 2015, dated 2024).

What was measured:
Format in all cases: in vivo
[1] = tested on: pigweed (Amaranthus retroflexus); assay: Test A postemergence; conditions: Amaranthus retroflexus, post-emergence, 240 h
Summary of the method: (§1)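 Compounds were formulated in a non-phytotoxic solvent mixture with surfactant and applied as a preemergence directed soil spray after seeding, or sprayed postemergence over plants 2 to 10 cm tall at the one- to two-leaf stage. Evaluation after about 10 d compared treated with untreated controls, using a scale from 0 (no effect) to 100 (complete control).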

[2] = tested on: barnyardgrass (Echinochloa crus-galli); assay: Test A postemergence; conditions: Echinochloa crus-galli, post-emergence, 240 h
Summary of the method: as §1

[3] = tested on: giant foxtail (Setaria faberii); assay: Test A postemergence; conditions: Setaria faberi, post-emergence, 240 h
Summary of the method: as §1

corn (Zea mays) = assay: Test A postemergence; conditions: Zea mays, post-emergence, 240 h
Summary of the method: as §1

[4] = tested on: ryegrass, Italian (Italian ryegrass, Lolium multiflorum); assay: Test A postemergence; conditions: Lolium multiflorum, post-emergence, 240 h
Summary of the method: as §1

[5] = tested on: wheat (Triticum aestivum); assay: Test A postemergence; conditions: Triticum aestivum, post-emergence, 240 h
Summary of the method: as §1

[6] = tested on: Galium (catchweed bedstraw, Galium aparine); assay: Test A postemergence; conditions: Galium, post-emergence, 240 h
Summary of the method: as §1

[7] = tested on: blackgrass (Alopecurus myosuroides); assay: Test A postemergence; conditions: Alopecurus myosuroides, post-emergence, 240 h
Summary of the method: as §1

Kochia (Kochia scoparia) [8] = assay: Test A postemergence; conditions: Bassia scoparia, post-emergence, 240 h
Summary of the method: as §1

[9] = tested on: ragweed (common ragweed, Ambrosia elatior); assay: Test A postemergence; conditions: Ambrosia artemisiifolia, post-emergence, 240 h
Summary of the method: as §1

[10] = tested on: pigweed (Amaranthus retroflexus); assay: Test A preemergence; conditions: Amaranthus retroflexus, pre-emergence, 240 h, 0 to 100 scale where 0 is no effect and 100 is complete control, read-out: Pigweed plant response rating
[11] = tested on: barnyardgrass (Echinochloa crus-galli); assay: Test A preemergence; conditions: Echinochloa crus-galli, pre-emergence, 240 h, 0 to 100 scale where 0 is no effect and 100 is complete control, read-out: Barnyardgrass plant response rating
Summary of the method: as §1

[12] = tested on: giant foxtail (Setaria faberii); assay: Test A preemergence; conditions: Setaria faberi, pre-emergence, 240 h, 0 to 100 scale where 0 is no effect and 100 is complete control, read-out: Foxtail, Giant plant response rating
Summary of the method: as §1

[13] = tested on: ryegrass, Italian (Italian ryegrass, Lolium multiflorum); assay: Test A preemergence; conditions: Lolium multiflorum, pre-emergence, 240 h, 0 to 100 scale where 0 is no effect and 100 is complete control, read-out: Ryegrass, Italian plant response rating
Summary of the method: as §1

Kochia (Kochia scoparia) [14] = assay: Test A preemergence; conditions: Bassia scoparia, pre-emergence, 240 h, 0 to 100 scale where 0 is no effect and 100 is complete control, read-out: Kochia plant response rating
Summary of the method: as §1

[15] = tested on: ragweed (common ragweed, Ambrosia elatior); assay: Test A preemergence; conditions: Ambrosia artemisiifolia, pre-emergence, 240 h, 0 to 100 scale where 0 is no effect and 100 is complete control, read-out: Ragweed plant response rating
Summary of the method: as §1

[16] = tested on: sedge, umbrella (small-flower umbrella sedge, Cyperus difformis); assay: Test B flooded paddy test; conditions: Cyperus difformis, 250 g ai/ha, Flood; 0 to 100 scale where 0 is no effect and 100 is complete control; read-out: Sedge, Umbrella plant response rating
Summary of the method: (§2)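 Greenhouse paddy pots with 2-leaf stage plants received compound by direct addition to floodwater 3 cm deep, kept at that level. Scored visually at 13–15 d versus controls (0 no effect; 100 complete control).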

[17] = tested on: ducksalad (Heteranthera limosa); assay: Test B flooded paddy test; conditions: Heteranthera limosa, 250 g ai/ha, Flood; 0 to 100 scale where 0 is no effect and 100 is complete control; read-out: Ducksalad plant response rating
Summary of the method: as §2

[18] = tested on: barnyardgrass (Echinochloa crus-galli); assay: Test B flooded paddy test; conditions: Echinochloa crus-galli, 250 g ai/ha, Flood; 0 to 100 scale where 0 is no effect and 100 is complete control; read-out: Barnyardgrass plant response rating
Summary of the method: as §2

rice (Oryra sativa) = assay: Test B flooded paddy test; conditions: Oryza sativa, 250 g ai/ha, Flood; 0 to 100 scale where 0 is no effect and 100 is complete control; read-out: Rice plant response rating
Summary of the method: as §2

[19] = 125 g ai/ha, preemergence, approx. 10 d

O=C(Nc1ccc(F)c(F)c1F)[C@H]1C(=O)N(O)CC[C@@H]1c1ccc(C(F)(F)F)cc1 [Compound 1108] gave a pest or weed control at 125 g/ha ([1]; 125 g ai/ha, postemergence, visual injury on 0 to 100 scale (0 no effect, 100 complete control), approx. 10 d, read-out: Pigweed plant response rating) of 0%, a pest or weed control at 31 g/ha ([1]; Postemergence, 31 g ai/ha, visual injury after approx. 10 d, 0 to 100 scale, 0 no effect, 100 complete control, read-out: Plant response rating, Pigweed) of 0% and a pest or weed control at 125 g/ha ([2]; 125 g ai/ha, postemergence, visual injury on 0 to 100 scale (0 no effect, 100 complete control), approx. 10 d, read-out: Barnyardgrass plant response rating) of 0%. For the same compound, the pest or weed control at 31 g/ha ([2]; Postemergence, 31 g ai/ha, visual injury after approx. 10 d, 0 to 100 scale, 0 no effect, 100 complete control, read-out: Plant response rating, Barnyardgrass) was 0%, the pest or weed control at 125 g/ha ([3]; 125 g ai/ha, postemergence, visual injury on 0 to 100 scale (0 no effect, 100 complete control), approx. 10 d, read-out: Foxtail, Giant plant response rating) was 0% and the pest or weed control at 31 g/ha ([3]; Postemergence, 31 g ai/ha, visual injury after approx. 10 d, 0 to 100 scale, 0 no effect, 100 complete control, read-out: Plant response rating, Foxtail, Giant) was 0%. The plant injury at 125 g/ha (corn (Zea mays); 125 g ai/ha, postemergence, visual injury on 0 to 100 scale (0 no effect, 100 complete control), approx. 10 d, read-out: Corn plant response rating) was 0%, the Corn plant response rating (crop injury, 0 = no effect, 100 = complete kill) at 31 g/ha (corn (Zea mays); Postemergence, 31 g ai/ha, visual injury after approx. 10 d, 0 to 100 scale, 0 no effect, 100 complete control) was 0% and the pest or weed control at 125 g/ha ([4]; 125 g ai/ha, postemergence, visual injury on 0 to 100 scale (0 no effect, 100 complete control), approx. 10 d, read-out: Ryegrass, Italian plant response rating) was 0%. The pest or weed control at 31 g/ha ([4]; Postemergence, 31 g ai/ha, visual injury after approx. 10 d, 0 to 100 scale, 0 no effect, 100 complete control, read-out: Plant response rating, Ryegrass, Italian) was 0%, the plant injury at 125 g/ha ([5]; 125 g ai/ha, postemergence, visual injury on 0 to 100 scale (0 no effect, 100 complete control), approx. 10 d, read-out: Wheat plant response rating) was 0% and the plant injury at 31 g/ha ([5]; Postemergence, 31 g ai/ha, visual injury after approx. 10 d, 0 to 100 scale, 0 no effect, 100 complete control, read-out: Plant response rating, Wheat) was 0%. The pest or weed control at 125 g/ha ([6]; 125 g ai/ha, postemergence, visual injury on 0 to 100 scale (0 no effect, 100 complete control), approx. 10 d, read-out: Galium plant response rating) was 0%, the pest or weed control at 31 g/ha ([6]; Postemergence, 31 g ai/ha, visual injury after approx. 10 d, 0 to 100 scale, 0 no effect, 100 complete control, read-out: Plant response rating, Galium) was 0% and the pest or weed control at 125 g/ha ([7]; 125 g ai/ha, postemergence, visual injury on 0 to 100 scale (0 no effect, 100 complete control), approx. 10 d, read-out: Blackgrass plant response rating) was 0%. It also gave a pest or weed control at 31 g/ha ([7]; Postemergence, 31 g ai/ha, visual injury after approx. 10 d, 0 to 100 scale, 0 no effect, 100 complete control, read-out: Plant response rating, Blackgrass) of 0%, a pest or weed control at 125 g/ha (Kochia (Kochia scoparia) [8]; 125 g ai/ha, postemergence, visual injury on 0 to 100 scale (0 no effect, 100 complete control), approx. 10 d, read-out: Kochia plant response rating) of 0% and a pest or weed control at 31 g/ha (Kochia (Kochia scoparia) [8]; Postemergence, 31 g ai/ha, visual injury after approx. 10 d, 0 to 100 scale, 0 no effect, 100 complete control, read-out: Plant response rating, Kochia) of 0%. The pest or weed control at 125 g/ha ([9]; 125 g ai/ha, postemergence, visual injury on 0 to 100 scale (0 no effect, 100 complete control), approx. 10 d, read-out: Ragweed plant response rating) was 0%, the pest or weed control at 31 g/ha ([9]; Postemergence, 31 g ai/ha, visual injury after approx. 10 d, 0 to 100 scale, 0 no effect, 100 complete control, read-out: Plant response rating, Ragweed) was 0% and the pest or weed control at 31 g/ha ([10]; 31 g ai/ha, Preemergence) was 0%. For the same compound, the pest or weed control at 125 g/ha [10, 19] was 0%, the pest or weed control at 31 g/ha ([11]; 31 g ai/ha, Preemergence) was 0% and the pest or weed control at 125 g/ha [11, 19] was 0%. For the same compound, the pest or weed control at 31 g/ha ([12]; 31 g ai/ha, Preemergence) was 0%, the pest or weed control at 125 g/ha [12, 19] was 0% and the pest or weed control at 31 g/ha ([13]; 31 g ai/ha, Preemergence) was 0%. For the same compound, the pest or weed control at 125 g/ha [13, 19] was 0%, the pest or weed control at 31 g/ha (Kochia (Kochia scoparia) [14]; 31 g ai/ha, Preemergence) was 0% and the pest or weed control at 125 g/ha (Kochia (Kochia scoparia) [14]; [19]) was 0%. It also gave a pest or weed control at 31 g/ha ([15]; 31 g ai/ha, Preemergence) of 0%, a pest or weed control at 125 g/ha [15, 19] of 0% and a pest or weed control at 250 g/ha [16] of 75%. It also gave a pest or weed control at 250 g/ha [17] of 85%, a pest or weed control at 250 g/ha [18] of 40% and a pest or weed control at 250 g/ha (rice (Oryra sativa)) of 20%.
